ChEMBL document CHEMBL2074356, “Direct evidence for peptide transporter (PepT1)-mediated uptake of a nonpeptide prodrug, valacyclovir” (Biochem Biophys Res Commun, 1998)
Non-standard residues stand in square brackets, D forms with d. Residues, ends and D or L forms follow the SMILES beside them. Sar = CNCC(=O)O

Legend:
[1] = molecular target: T1, Solute carrier family 15 member 1 (Homo sapiens) (UniProt P46059); assay: TP_TRANSPORTER: inhibition of VACV uptake (VACV: 0.2 uM, Gly-Gly-Gly: 10000 uM) in Xenopus laevis oocytes; type: functional, cell-based; conditions: Oocyte
T1 sequence (whole entry): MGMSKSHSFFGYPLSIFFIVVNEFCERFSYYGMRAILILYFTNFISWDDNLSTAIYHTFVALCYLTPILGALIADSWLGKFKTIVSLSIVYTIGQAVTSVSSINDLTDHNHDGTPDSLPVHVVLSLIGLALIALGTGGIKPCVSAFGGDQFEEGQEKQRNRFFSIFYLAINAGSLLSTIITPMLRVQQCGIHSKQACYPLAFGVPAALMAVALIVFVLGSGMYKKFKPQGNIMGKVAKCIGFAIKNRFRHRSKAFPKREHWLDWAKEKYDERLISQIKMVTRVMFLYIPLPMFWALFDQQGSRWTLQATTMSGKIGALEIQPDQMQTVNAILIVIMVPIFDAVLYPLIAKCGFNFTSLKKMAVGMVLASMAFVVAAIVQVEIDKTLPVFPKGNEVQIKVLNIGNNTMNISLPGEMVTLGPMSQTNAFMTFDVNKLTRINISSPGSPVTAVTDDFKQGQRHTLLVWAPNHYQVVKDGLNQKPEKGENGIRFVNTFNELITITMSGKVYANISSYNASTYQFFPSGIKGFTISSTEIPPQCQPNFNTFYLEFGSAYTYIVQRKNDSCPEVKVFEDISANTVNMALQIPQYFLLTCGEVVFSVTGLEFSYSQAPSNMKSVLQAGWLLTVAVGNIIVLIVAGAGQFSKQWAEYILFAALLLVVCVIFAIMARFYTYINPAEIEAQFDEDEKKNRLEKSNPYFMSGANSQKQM

[2] = molecular target: T1, Solute carrier family 15 member 1 (Homo sapiens); assay: TP_TRANSPORTER: inhibition of VACV uptake (VACV: 0.2 uM, Gly-Sar: 10000 uM) in Xenopus laevis oocytes; type: functional, cell-based; conditions: Oocyte
[3] = molecular target: T2, Solute carrier family 15 member 1 (Homo sapiens, UniProt P46059); assay: TP_TRANSPORTER: inhibition of Gly-Sar uptake in Xenopus laevis oocytes; type: functional, cell-based, Oocyte
T2 sequence (P46059 whole entry): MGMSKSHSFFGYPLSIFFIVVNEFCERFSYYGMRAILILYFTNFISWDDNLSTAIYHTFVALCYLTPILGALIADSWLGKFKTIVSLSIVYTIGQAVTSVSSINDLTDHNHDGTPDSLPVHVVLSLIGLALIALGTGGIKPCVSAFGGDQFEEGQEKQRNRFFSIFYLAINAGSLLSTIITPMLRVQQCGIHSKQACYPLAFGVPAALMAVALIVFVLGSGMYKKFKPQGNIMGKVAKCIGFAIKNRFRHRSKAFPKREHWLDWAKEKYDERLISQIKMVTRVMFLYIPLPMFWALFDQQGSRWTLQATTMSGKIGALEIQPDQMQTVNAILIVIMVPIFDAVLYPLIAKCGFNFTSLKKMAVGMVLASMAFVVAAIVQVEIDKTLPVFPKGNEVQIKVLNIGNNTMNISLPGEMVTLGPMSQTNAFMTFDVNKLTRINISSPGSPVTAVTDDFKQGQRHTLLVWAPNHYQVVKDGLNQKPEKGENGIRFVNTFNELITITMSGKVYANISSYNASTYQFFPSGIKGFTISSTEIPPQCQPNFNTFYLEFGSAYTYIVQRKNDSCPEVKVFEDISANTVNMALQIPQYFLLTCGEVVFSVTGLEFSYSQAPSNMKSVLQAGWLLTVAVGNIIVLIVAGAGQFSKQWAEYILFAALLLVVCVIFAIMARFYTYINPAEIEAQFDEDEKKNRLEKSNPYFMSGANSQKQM

[4] = molecular target: T1, Solute carrier family 15 member 1 (Homo sapiens); assay: TP_TRANSPORTER: inhibition of VACV uptake (VACV: 0.2 uM, Carnosine: 10000 uM) in Xenopus laevis oocytes; type: functional, cell-based; conditions: Oocyte
[5] = substrate: CC(C)[C@H](N)C(=O)OCCOCn1cnc2c(=O)nc(N)[nH]c21; conditions: Xenopus laevis; Oocyte

NCC(=O)NCC(=O)NCC(=O)O
Activity [1]: inhibitor [55% (at a rough estimate) of control]

CN(CC(=O)O)C(=O)CN (H-Gly-[Sar]-OH)
Activity [2]: inhibitor [55% (at a rough estimate) of control]

CC(C)[C@H](N)C(=O)OCCOCn1cnc2c(=O)[nH]c(N)nc21 [VALACYCLOVIR]
Ki [3]: 4.08 mM

NCCC(=O)N[C@@H](Cc1c[nH]cn1)C(=O)O
Activity [4]: inhibitor [70% (at a rough estimate) of control]

B1: Solute carrier family 15 member 1 (Homo sapiens), P46059 (protein)
chain: MGMSKSHSFFGYPLSIFFIVVNEFCERFSYYGMRAILILYFTNFISWDDNLSTAIYHTFVALCYLTPILGALIADSWLGKFKTIVSLSIVYTIGQAVTSVSSINDLTDHNHDGTPDSLPVHVVLSLIGLALIALGTGGIKPCVSAFGGDQFEEGQEKQRNRFFSIFYLAINAGSLLSTIITPMLRVQQCGIHSKQACYPLAFGVPAALMAVALIVFVLGSGMYKKFKPQGNIMGKVAKCIGFAIKNRFRHRSKAFPKREHWLDWAKEKYDERLISQIKMVTRVMFLYIPLPMFWALFDQQGSRWTLQATTMSGKIGALEIQPDQMQTVNAILIVIMVPIFDAVLYPLIAKCGFNFTSLKKMAVGMVLASMAFVVAAIVQVEIDKTLPVFPKGNEVQIKVLNIGNNTMNISLPGEMVTLGPMSQTNAFMTFDVNKLTRINISSPGSPVTAVTDDFKQGQRHTLLVWAPNHYQVVKDGLNQKPEKGENGIRFVNTFNELITITMSGKVYANISSYNASTYQFFPSGIKGFTISSTEIPPQCQPNFNTFYLEFGSAYTYIVQRKNDSCPEVKVFEDISANTVNMALQIPQYFLLTCGEVVFSVTGLEFSYSQAPSNMKSVLQAGWLLTVAVGNIIVLIVAGAGQFSKQWAEYILFAALLLVVCVIFAIMARFYTYINPAEIEAQFDEDEKKNRLEKSNPYFMSGANSQKQM
Km [5]: 5.94 mM
